Measurements: patent publication US20110178016A1, “PULSE PARATHYROID HORMONE FOR TREATMENT OF THE HEM[…], STROMAL CELL LOSS, AND VASCULAR INJURY RESULTING FROM ACUTE EXPOSURE TO LETHAL RADIATION” (priority 2008, published 2011)
Entries after “also recorded” stand apart in the source; their conditions may differ.

Key:
[1] = Serum PTH levels for PK analysis in non-irradiated monkeys; assay type: in vivo, cynomolgus monkeys; details: non-irradiated monkeys 7801 (100 mcg/kg/d) and 7872 (50 mcg/kg/d), days 1 and 18
Method: PTH becomes undetectable by 4-6 hours after dosing, despite extremely high doses of PTH.
(§1) Two cynomolgus monkeys (hereafter referred to as CYNOs) were treated with a 21 day course of daily subcutaneous PTH at either 100 mcg/kg (monkey 7801) or 50 mcg/kg (monkey 7872). Hematopoietic outcome measures included:
(c) serum PTH levels; and […]

[2] = system: macaque monkeys following chemo-ablative therapy and MHC mis-matched allogeneic stem cell transplant; experiment: Daily PTH after chemo-ablative conditioning and MHC mismatched allogeneic stem cell transplant; assay type: in vivo
Excerpt: A previously unrecognized role for PTH on mitigation of myelosuppression in macaque monkeys is described. Following chemo-ablative therapy and MHC mis-matched allogeneic stem cell transplant, animals were randomized to daily PTH treatment (5 mcg/kg/day subcutaneously) or placebo. […] Following myeloablation, PTH may act to increase megakaryopoiesis through increased production of HSC.
(§2) Bone marrow transplant studies by Calvi and colleagues characterized this process in the syngeneic mouse model of osteoblastic activation. To see if PTH could enhance allogeneic stem cell engraftment in nonhuman primates (monkeys), donors were MHC mismatched based on recipient proliferation against donor cells in the mixed lymphocyte culture and by disparity at the class I antigen, Bw6. This disparity permitted tracking of Bw6+ donor cells following transplantation into Bw6-recipients. Eight control recipients were conditioned with thymoglobulin, rituxan, fludarabine, and melphalan. Six animals received the conditioning regimen supplemented with parathyroid hormone beginning on the first day of the conditioning regimen and administered daily at a dose of 5 micrograms/kg subcutaneously. An allogeneic stem cell transplant consisting of 2−4×10^6 CD34+cells/kg was administered on day 0. Outcome measures included PTH levels, CBCs, and donor engraftment via flow cytometry.

[3] = system: cynomolgus monkeys; experiment: Toxicity studies of a 21 day course of PTH in monkeys (cardiac monitoring, serum calcium, kidney MRI); assay type: in vivo
Method: as §1
(d) MRI of the kidneys upon completion of the 21 day course.
Three cynomolgus monkeys (hereafter referred to as CYNOs) were treated with a 21 day course of daily subcutaneous PTH at either 50 ug/kg (7872), 100 ug/kg (7801), or 250 ug/kg (7876).
Two were irradiated (7801 and 7875) at a lethal dose of 682 cGy and administered 100 ug/kg. Of note, 7801 underwent a washout period prior to undergoing irradiation and subsequent PTH therapy
Outcome measures included:
(a) continuous cardiac monitoring and serum calcium
(e) MRI of the kidneys upon completion of the 21 day course.

[4] = Serum PTH levels in mice after final dose (Mesoscale); assay type: in vivo; details: 400 mcg/kg PTH, final dose on day 28
Method: (§3) Bone marrow was analyzed for colony forming units (CFU) (FIGS. 9A and 9B), hematopoietic stem cell content. Serum was analyzed for PTH levels on the final day of the study to determine the duration of detectable PTH in the serum following the final dose.

[5] = PTH levels after subcutaneous administration in transplanted monkeys; assay type: in vivo, nonhuman primates (monkeys); details: 5 micrograms/kg subcutaneously
Excerpt: as §2

[6] = clinical studies, cited from earlier work
[7] = system: rat; details: prolonged daily dosing, 4 months-2 years; cited from earlier work
[8] = system: monkeys; details: prolonged daily dosing, 4 months-2 years; cited from earlier work
[9] = system: bone marrow colony forming units / hematopoietic stem cells; experiment: Bone marrow colony forming units and hematopoietic stem cell content in irradiated mice; assay type: in vivo, B6 mice; details: 772 cGy
Method: In a second experiment, a sub-group of animals were euthanized on day 7, n=3 per cohort. Bone marrows were flushed and CFUs were performed.
B6 mice underwent 772 cGy irradiation and a daily total dose of 400 mcg/kg/day of PTH.
One group of animals was euthanized on day 3 (n=3) one group on day 7 (n=4) and one group (n=3) on day 28.
as §3
Mice underwent exposure to 772 cGy radiation and were randomized to treatment of daily PTH 400 mcg/kg or saline. On days 3 (n=3) and 7 (n=4) bone marrow was analyzed for colony forming units.
Following irradiation with 772 cGy, mice underwent bone marrow analysis on days 3 (n=3) or 7 (n=4) for hematopoietic stem cell content. […] (FIG. 11)

[10] = system: bone marrow colony forming units / CD34+ hematopoietic stem cells; experiment: Bone marrow CFU and CD34+ cells in non-irradiated monkeys 24 hours after first PTH dose; assay type: in vivo, cynomolgus monkeys; details: non-irradiated CYNOs
Method: as §1
(a) bone marrow analysis for colony forming units 24 hours after first dose of PTH;
(b) bone marrow analysis for CD34+ hematopoietic stem cells 24 hours after first dose of PTH;

[11] = macaques, PTH 5 mcg/kg/day sc, statistical significance by 4 weeks
[12] = CYNOs, 21 day course, 100 mcg/kg or 50 mcg/kg
[13] = highest dose, 250 ug/kg, administered for 21 days

CC[C@H](C)[C@H](NC(=O)[C@H](CCC(=O)O)NC(=O)[C@H](CO)NC(=O)[C@@H](NC(=O)[C@@H](N)CO)C(C)C)C(=O)N[C@@H](CCC(N)=O)C(=O)N[C@@H](CC(C)C)C(=O)N[C@@H](CCSC)C(=O)N[C@@H](Cc1cnc[nH]1)C(=O)N[C@@H](CC(N)=O)C(=O)N[C@@H](CC(C)C)C(=O)NCC(=O)N[C@@H](CCCCN)C(=O)N[C@@H](Cc1cnc[nH]1)C(=O)N[C@@H](CC(C)C)C(=O)N[C@@H](CC(N)=O)C(=O)N[C@@H](CO)C(=O)N[C@@H](CCSC)C(=O)N[C@@H](CCC(=O)O)C(=O)N[C@@H](CCCN=C(N)N)C(=O)N[C@H](C(=O)N[C@@H](CCC(=O)O)C(=O)N[C@@H](Cc1c[nH]c2ccccc12)C(=O)N[C@@H](CC(C)C)C(=O)N[C@@H](CCCN=C(N)N)C(=O)N[C@@H](CCCCN)C(=O)N[C@@H](CCCCN)C(=O)N[C@@H](CC(C)C)C(=O)N[C@@H](CCC(N)=O)C(=O)N[C@@H](CC(=O)O)C(=O)N[C@H](C(=O)N[C@@H](Cc1cnc[nH]1)C(=O)N[C@@H](CC(N)=O)C(=O)N[C@@H](Cc1ccccc1)C(=O)O)C(C)C)C(C)C [PTH, Teriparatide]
time after dosing by which PTH becomes undetectable in serum [1]: 4 to 6 h
hemoglobin (serial CBCs) ([2]; PTH group vs control group): no significant difference
engrafting donor B cells ([2]; macaques, PTH 5 mcg/kg/day sc): significantly increased
host (recipient) T cells ([2]; macaques, PTH 5 mcg/kg/day sc): no significant increase; also recorded: little or no effect
host or donor myeloid lineage CD14 or CD11b+ cells ([2]; macaques, PTH 5 mcg/kg/day sc): no significant increase
engrafting donor T cells (CD4 and CD8 subsets) ([2]; macaques, PTH 5 mcg/kg/day sc vs control): significant increases; also recorded: significantly increased; also recorded: increased over control animals
engrafting donor CD34+ cells [2, 11]: significantly increased; also recorded: significant increases
host CD34+ stem cells [2, 11]: significantly increased; also recorded: significant increases
platelet counts in peripheral blood ([2]; macaques, PTH 5 mcg/kg/day subcutaneously vs untreated controls, first observed 7 days after PTH therapy): statistically significant increase; also recorded: increased levels of platelets
recipient granulocytes or natural killer cells ([2]; macaques, PTH 5 micrograms/kg sc daily): No effect
iliac crest bone biopsy findings after vs before PTH treatment ([2]; monkeys 7150 and 7154, 5 weeks after PTH treatment): increased cortical bone, increased osteoblasts, and loss of adiposity; also recorded: adiposity was reduced, and cortical bone formation increased
tolerability ([3]; 250 ug/kg up to 19 days, non-irradiated cynomolgus monkey): well tolerated
Cardiac monitoring [3, 12]: some shortening of the Qt segment but no life threatening arrythmias
serum calcium peak [3, 12]: ≤ 11.5 mg/dL
time for serum calcium to return to normal range after dosing [3, 12]: 6 to 10 h
T wave height and ST-intervals over time [3, 13]: some decrease
arrhythmias [3, 13]: No life-threatening arrhythmias
tolerance in toxicity studies ([3]; irradiated and non-irradiated monkeys, doses comparable to doses to ameliorate radiation damage): tolerated
serum calcium levels ([3]; irradiated monkeys 7875 and 7801, 100 ug/kg, exception day 19 for 7801): normal calcium levels except one timepoint
BUN or creatinine ([3]; monkeys 7801 (100 mcg/kg) and 7872 (50 mcg/kg), 21 day course): No change
MRI examination of the kidneys ([3]; monkeys 7801 (100 mcg/kg) and 7872 (50 mcg/kg), after 21 day course): no cystic degeneration or tumors
serum calcium level ([3]; non-irradiated animal 7876, 250 ug/kg, 21st day of dosing, with some somnolent behavior): 17 mg/dL
toxicity during the first 20 days of dosing ([3]; three non-irradiated cynomolgus monkeys, 50, 100, 250 ug/kg, calcium slightly elevated): did not experience toxicity
PTH in sera after final PTH dose [4]: some persistence of PTH at 24 hours
time of return of serum PTH to baseline after final dose [4]: 48 h
time by which PTH levels were undetectable [5]: ≤ 4 h
Tmax ([5]; monkey, in vivo, sc, read-out: time of peak PTH levels after administration (converted)): 30 min
toxic effect ([6]; even with chronic treatment): no toxic effect
biological potency vs full-length PTH protein [6]: comparable biological potency
doses at which toxicity was observed [7]: exceeding 75 mcg/kg
doses at which toxicity was observed [8]: > 0.04 mg/kg
CFU capabilities of bone marrow ([9]; PTH 400 mcg/kg/day x 7 days, euthanized on day 7, n=3 per cohort, compared to other groups): greatest preservation of CFU capabilities; also recorded: preserves CFU
CFU-GM and CFU-M in bone marrow ([9]; daily PTH 400 mcg/kg vs saline, days 3 and 7): increased with PTH therapy
bone marrow hematopoietic stem cell content, treatment vs control ([9]; daily PTH 400 mcg/kg, day 3): no statistical significance
increase in bone marrow stem cell content ([9]; daily PTH 400 mcg/kg, day 7): 5 fold
BFU and CFU-GEMM in bone marrow ([9]; daily PTH 400 mcg/kg, trend more pronounced on day 7): increased with PTH treatment
CFU-GM and CFU-M in bone marrow aspirates ([10]; 50 or 100 mcg/kg, 24 hours after first dose, more pronounced with higher dose): increases
Erythroid, megakaryocyte lineages (BFU, CFU-GEMM) in bone marrow aspirate ([10]; 50 or 100 mcg/kg, after first dose): increase
bone marrow analysis, all lineages, by PTH dose ([10]; 50 vs 100 mcg/kg): dose response
percent of CD34+ hematopoietic stem cells vs pre-treatment levels ([10]; 24 hours after first dose): increases
